Test [1] has as its target T1, Oxytocin receptor (uterin muscle membrane preparation) (Rattus norvegicus, UniProt P70536).
T1 construct: was homogenized, which was used as a membrane; from tissue; host or cells: uterine muscle membranes from diethylstilbestrol-treated animals
T1 sequence (P70536 1-388): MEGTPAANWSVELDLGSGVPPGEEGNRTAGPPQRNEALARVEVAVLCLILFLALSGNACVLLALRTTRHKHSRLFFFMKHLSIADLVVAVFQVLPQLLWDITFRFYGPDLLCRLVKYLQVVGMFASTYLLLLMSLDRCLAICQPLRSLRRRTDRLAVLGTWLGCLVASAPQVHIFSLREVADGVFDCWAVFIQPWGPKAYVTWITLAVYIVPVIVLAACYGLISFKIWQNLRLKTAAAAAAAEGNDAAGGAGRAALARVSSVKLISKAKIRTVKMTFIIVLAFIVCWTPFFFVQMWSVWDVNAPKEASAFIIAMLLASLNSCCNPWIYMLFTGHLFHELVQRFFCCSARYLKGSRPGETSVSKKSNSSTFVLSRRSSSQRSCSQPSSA
Nature of the test: Oxytocin receptor binding assay. The note with it: [3H]-oxytocin 10^-9 M, 25°, one hour, pH 8.0, uterin muscle membrane, DES-treated. In a few lines:
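Rat uterine membranes (0.2 mg; DES-primed day before) incubated 1 h at 25° with [3H]-oxytocin (10^-9 M) and compound (10^-9 to 10^-5 M) in 100 mM Tris-HCl pH 8.0, 5 mM MgCl2, 1 mM EDTA, 0.1% BSA. Filter-bound radioactivity counted; nonspecific with 5×10^-6 M oxytocin; IC50 reported.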

Test [2] has as its target T2, V1 Recepter (rat liver plasma membrane preparations) (Rattus norvegicus, UniProt P30560).
T2 construct: rat liver plasma membrane preparations; from tissue; host or cells: rat liver plasma membranes
Kind of test: V1 Recepter binding assay. The note with it: [3H]-Arg-vasopressin 2×10^-10 M, 37° C., 10 minutes, pH 8.0, rat liver plasma membrane. The method in brief:
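Rat liver plasma membranes incubated with [3H]-Arg-vasopressin (2×10^-10 M) and compound (10^-8 to 10^-4 M) for 10 min at 37° C in Tris-HCl pH 8.0 with MgCl2, EDTA, BSA. Bound label separated by glass-fibre filtration, scintillation counted; nonspecific binding with 10^-6 M vasopressin; IC50 reported.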

The target in test [3] is T3, V2 Recepter (rat kidney plasma membrane preparations) (Rattus norvegicus, UniProt Q00788).
T3 construct: rat kidney plasma membrane preparations; from tissue; host or cells: rat kidney plasma membranes
Kind of test: V2 Recepter binding assay. The note with it: [3H]-Arg-vasopressin 4×10^-10 M, 4° C., pH 8.0, rat kidney plasma membrane. The method in brief:
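Rat kidney plasma membranes incubated with [^3H]-Arg-vasopressin (4×10^-10 M) and test compound (10^-10 to 10^-5 M) for 3 h at 4 °C in 100 mM Tris-HCl pH 8.0 with 5 mM MgCl2, 1 mM EDTA, 0.1% BSA. Bound label by filtration and scintillation counting; nonspecific binding with 10^-6 M vasopressin; IC50 reported.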

Counter-ions that a name gives are not always drawn.

T2 sequence (P30560 whole entry): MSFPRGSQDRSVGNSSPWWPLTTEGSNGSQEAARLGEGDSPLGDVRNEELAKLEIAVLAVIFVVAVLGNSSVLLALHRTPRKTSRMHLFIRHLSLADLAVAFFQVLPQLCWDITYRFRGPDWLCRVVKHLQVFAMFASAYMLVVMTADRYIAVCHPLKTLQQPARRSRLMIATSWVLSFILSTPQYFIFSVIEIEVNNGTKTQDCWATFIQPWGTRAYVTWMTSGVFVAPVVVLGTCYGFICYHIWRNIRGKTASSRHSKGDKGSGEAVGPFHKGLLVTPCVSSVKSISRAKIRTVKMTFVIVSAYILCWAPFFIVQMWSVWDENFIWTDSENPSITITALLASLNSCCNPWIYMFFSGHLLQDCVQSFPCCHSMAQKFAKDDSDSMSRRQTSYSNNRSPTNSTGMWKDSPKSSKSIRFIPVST
T3 sequence (Q00788 whole entry): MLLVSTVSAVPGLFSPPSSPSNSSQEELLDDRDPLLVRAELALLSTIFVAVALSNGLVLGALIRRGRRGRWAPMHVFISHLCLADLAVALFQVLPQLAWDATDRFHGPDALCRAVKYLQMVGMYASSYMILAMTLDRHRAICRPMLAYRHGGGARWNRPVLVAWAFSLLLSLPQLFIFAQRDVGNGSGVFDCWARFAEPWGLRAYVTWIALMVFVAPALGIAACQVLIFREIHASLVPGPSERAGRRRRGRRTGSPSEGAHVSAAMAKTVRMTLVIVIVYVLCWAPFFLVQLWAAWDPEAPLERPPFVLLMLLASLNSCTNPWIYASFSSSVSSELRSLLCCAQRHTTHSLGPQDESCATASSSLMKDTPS

`COc1cc(NC(=O)c2ccccc2Cl)ccc1C(=O)N1CCCC(OCCNCc2ccccc2)c2cc(Cl)ccc21` (stereo not drawn) [Example 150, 5-(2-Benzylaminoethoxy)-7-chloro-1-[2-methoxy-4-(2-chlorobenzoylamino)benzoyl]-2,3,4,5-tetrahydro-1H-benzoazepine]: the IC50 (usually the concentration needed to halve the response being measured) in test [1] is 471 nM; in test [2] it was 16 nM; in test [3], 9 nM.

Regarding `COc1cc(NC(=O)c2ccccc2Br)ccc1C(=O)N1CCCC(OCCNS(=O)(=O)C(F)(F)F)c2cc(Cl)ccc21` (stereo not drawn) [Example 152, 5-(2-Trifluoromethylsulfonylaminoethoxy)-7-chloro-1-[2-methoxy-4-(2-bromobenzoylamino)benzoyl]-2,3,4,5-tetrahydro-1H-benzoazepine], the IC50 in test [1] turned out to be 1640 nM; in test [2], 41 nM; in test [3] it was 61 nM.

As for `CCN(CC)CCCNCCOC1CCCN(C(=O)c2ccc(NC(=O)c3ccccc3Cl)cc2OC)c2ccc(Cl)cc21` (stereo not drawn) [Example 153, 5-[2-(3-Diethylaminopropyl)aminoethoxy]-7-chloro-1-[2-methoxy-4-(2-chlorobenzoylamino)benzoyl]-2,3,4,5-tetrahydro-1H-benzoazepine], the figures for the IC50 in test [1], in test [2] and in test [3] were 248 nM, 36 nM and 5 nM, respectively.

For the compound `COc1cc(NC(=O)c2ccccc2Cl)ccc1C(=O)N1CCCC(CC(=O)NCCc2cccn2C)c2cc(Cl)ccc21` (stereo not drawn) [Example 154, 5-[2-(1-Methyl-2-pyrrolyl)ethyl]aminocarbonyl-methyl-7-chloro-1-[2-methoxy-4-(2-chlorobenzoylamino)benzoyl]-2,3,4,5-tetrahydro-1H-benzoazepine], the results for the half-inhibitory concentration (IC50) in test [1], in test [2] and in test [3] were 197 nM, 21 nM and 12 nM, respectively.

As for `COc1cc(NC(=O)c2ccccc2Cl)ccc1C(=O)N1CCCC(CC(=O)NCCC2CCCN2C)c2cc(Cl)ccc21` (stereo not drawn) [Example 155, 5-[2-(1-Methyl-2-pyrrolidinyl)ethyl]-aminocarbonylmethyl-7-chloro-1-[2-methoxy-4-(2-chlorobenzoylamino)benzoyl]-2,3,4,5-tetrahydro-1H-benzoazepine], the half-maximal inhibitory concentration (IC50) is 55 nM in test [1], 7 nM in test [2] and 1.9 nM in test [3].

On to `COc1cc(NC(=O)c2ccccc2Cl)ccc1C(=O)N1CCCC(CC(=O)NCCN2CCCCC2)c2cc(Cl)ccc21` (stereo not drawn) [Example 156, 5-[2-(1-Piperidinyl)ethyl]aminocarbonylmethyl-7-chloro-1-[2-methoxy-4-(2-chlorobenzoylamino)benzoyl]-2,3,4,5-tetrahydro-1H-benzoazepine], for which the IC50 in test [1] stood at 70 nM; in test [2], 5.5 nM; in test [3] it was 3 nM.

With `COc1cc(NC(=O)c2ccccc2Cl)ccc1C(=O)N1CCCC(CC(=O)N2CCN(CC(=O)N3CCCC3)CC2)c2cc(Cl)ccc21` (stereo not drawn) [Example 157, 5-{4-[(1-Pyrrolidynyl)carbonylmethyl]-1-piperazinyl}carbonylmethyl-7-chloro-1-[2-methoxy-4-(2-chlorobenzoylamino)benzoyl]-2,3,4,5-tetrahydro-1H-benzoazepine], the IC50 in test [1] amounted to 47 nM; in test [2] it was 16 nM; in test [3], 7.3 nM.

Take `COc1cc(NC(=O)c2ccccc2Cl)ccc1C(=O)N1CCCC(CC(=O)Nc2ccccc2Cl)c2cc(Cl)ccc21` (stereo not drawn) [Example 158, 5-(2-Chloroanilino)carbonylmethyl-7-chloro-1-[2-methoxy-4-(2-chlorobenzoylamino)benzoyl]-2,3,4,5-tetrahydro-1H-benzoazepine]: the concentration for half-maximal inhibition (IC50) in test [1] stood at 130 nM; in test [2] it was 31 nM; in test [3], 14 nM.

`COc1cc(NC(=O)c2ccccc2Cl)ccc1C(=O)N1CCCC(NC(=O)c2ccccc2Cl)c2cc(Cl)ccc21` (stereo not drawn) [Example 159, 5-(2-Chlorobenzoylamino)-7-chloro-1-[2-methoxy-4-(2-chlorobenzoylamino)benzoyl]-2,3,4,5-tetrahydro-1H-benzoazepine]: the half-maximal inhibitory concentration (IC50) in test [1] is 1700 nM; in test [2], 280 nM; in test [3], 25 nM.

On to `COc1cc(NC(=O)c2ccccc2Cl)ccc1C(=O)N1CCCC(CC(=O)NCCN(C)CCO)c2cc(Cl)ccc21` (stereo not drawn) [Example 160, 5-{2-[N-(2-Hydroxyethyl)-N-methylamino]ethyl}-aminocarbonylmethyl-7-chloro-1-[2-methoxy-4-(2-chlorobenzoylamino)benzoyl]-2,3,4,5-tetrahydro-1H-benzoazepine], for which the results for the IC50 in test [1], in test [2] and in test [3] were 84 nM, 6 nM and 3.3 nM, respectively.

For `COc1cc(C(=O)N2CCCC(CC(=O)NCCN3CCOCC3)c3cc(Cl)ccc32)ccc1NC(=O)c1ccccc1Br` (stereo not drawn) [Example 164, 5-(2-Morpholinoethyl)aminocarbonylmethyl-7-chlorolo-[3-methoxy-4-(2-bromobenzoylamino)-benzoyl]-2,3,4,5-tetrahydro-1H-benzoazepine], the IC50 was determined as 41 nM in test [1], 2.6 nM in test [2] and 8.5 nM in test [3].

Turning to `COc1cc(C(=O)N2CCCC(OCC(=O)NCCN3CCCCC3)c3cc(Cl)ccc32)ccc1NC(=O)c1ccccc1Br` (stereo not drawn) [Example 167, 5-[2-(1-Piperidinyl)ethyl]aminocarbonylmethoxy-7-chloro-1-[3-methoxy-4-(2-bromobenzoylamino)benzoyl]-2,3,4,5-tetrahydro-1H-benzoazepine], the IC50 in test [1] worked out at 177 nM; in test [2] it was 5.5 nM; in test [3], 8.5 nM.

On to `COc1cc(C(=O)N2CCCC(OCC(=O)NCCN3CCOCC3)c3cc(Cl)ccc32)ccc1NC(=O)c1ccccc1Br` (stereo not drawn) [Example 168, 5-(2-Morpholinoethyl)aminocarbonylmethoxy-7-chloro-1-[3-methoxy-4-(2-bromobenzoylamino)benzoyl]-2,3,4,5-tetrahydro-1H-benzoazepine], for which the concentration for half-maximal inhibition (IC50) in test [1] was found to be 85 nM; in test [2] it was 10 nM; in test [3], 19 nM.

As for `C=CCNCCOC1CCCN(C(=O)c2ccc(NC(=O)c3ccccc3Cl)cc2OC)c2ccc(Cl)cc21` (stereo not drawn) [Example 169, 5-(2-Allylaminoethoxy)-7-chloro-1-[2-methoxy-4-(2-chlorobenzoylamino)benzoyl]-2,3,4,5-tetrahydro-1H-benzoazepine.cndot.hydrochloride], the IC50 came out at 147 nM in test [1], 7 nM in test [2] and 5.6 nM in test [3].

On to `C#CCNCCOC1CCCN(C(=O)c2ccc(NC(=O)c3ccccc3Cl)cc2OC)c2ccc(Cl)cc21` (stereo not drawn) [Example 170, 5-(2-Propargylaminoethoxy)-7-chloro-1-[2-methoxy-4-(2-chlorobenzoylamino)benzoyl]-2,3,4,5-tetrahydro-1H-benzoazepine.cndot.hydrochloride], for which the IC50 in test [1] amounted to 416 nM; in test [2], 24 nM; in test [3] it was 7 nM.

Consider `COc1cc(NC(=O)c2ccccc2Cl)ccc1C(=O)N1CCCC(OCCn2ccnc2)c2cc(Cl)ccc21` (stereo not drawn) [Example 171, 5-[2-(1-Imidazolyl)ethoxy]-7-chloro-1-[2-methoxy-4-(2-chlorobenzoylamino)benzoyl]-2,3,4,5-tetrahydro-1H-benzoazepine], for which the IC50 in test [1] turned out to be 317 nM; in test [2], 110 nM; in test [3], 15 nM.

For the origin of these results see US5622947A, “Benzoheterocyclic compounds and vasopressin antagonist and oxytocin antagonist compositions containing a benzoheterocyclic compound” (Otsuka Pharmaceutical Co., Ltd., priority 1992, dated 1997).
